pKd: −log10 of the molar value.
Columns and labels:
[1] = Hepatocyte Stability Assay, human hepatocytes; format: in vitro ADME; conditions: cryopreserved hepatocytes, read-out: Human Heps CLint
Experimental: 10 mM stock solutions of test compound and positive control are prepared in DMSO. Stock solutions are diluted to 100 μM by combining 198 μL of 50% acetonitrile/50% water and 2 μL of 10 mM stock solution. Verapamil is used as positive control in the assay. Vials of cryopreserved hepatocytes are thawed in a 37° C. water bath with gently shaking. The contents are poured into the 50 mL thawing medium conical tube. Vials are centrifuged at 100 g for 10 minutes at room temperature. Thawing medium is aspirated and hepatocytes are re-suspended with serum-free incubation medium to yield ˜1.5×10^6 cells/mL. Cell viability and density are counted using a Trypan Blue exclusion, and then cells are diluted with serum-free incubation medium to a working cell density of 0.5×10^6 viable cells/mL. A portion of the hepatocytes at 0.5×10^6 viable cells/mL are boiled for 5 min prior to adding to the plate as negative control to eliminate the enzymatic activity so that little or no substrate turnover should be observed. Aliquots of 198 μL hepatocytes are dispensed into each well of a 96-well non-coated plate. The plate is placed in the incubator for approximately 10 minutes. Aliquots of 2 μL of the 100 μM test compound and 2 μL positive control are added into respective wells of a non-coated 96-well plate to start the reaction. The final concentration of test compound is 1 μM. This assay is performed in duplicate. The plate is incubated in the incubator for the designed time points. 25 μL of contents are transferred and mixed with 6 volumes (150 μL) of cold acetonitrile with internal standard (100 nM alprazolam, 200 nM labetalol, 200 nM caffeine and 200 nM diclofenac) to terminate the reaction at time points of 0, 15, 30, 60, 90 and 120 minutes. Samples are centrifuged for 25 minutes at 3,220 g and aliquots of 150 μL of the supernatants are used for LC-MS/MS analysis.

[2] = biological target: T1, JAK3 (Homo sapiens, UniProt P52333); assay: JAK Family Selectivity Assay: JAK3 vs JAK2 binding affinity; conditions: Kd JAK3 over Kd JAK2
T1 construct: made in house; host or cells: T7 phage in BL21-derived E. coli or HEK-293 cells
T1 sequence (P52333 1-1124): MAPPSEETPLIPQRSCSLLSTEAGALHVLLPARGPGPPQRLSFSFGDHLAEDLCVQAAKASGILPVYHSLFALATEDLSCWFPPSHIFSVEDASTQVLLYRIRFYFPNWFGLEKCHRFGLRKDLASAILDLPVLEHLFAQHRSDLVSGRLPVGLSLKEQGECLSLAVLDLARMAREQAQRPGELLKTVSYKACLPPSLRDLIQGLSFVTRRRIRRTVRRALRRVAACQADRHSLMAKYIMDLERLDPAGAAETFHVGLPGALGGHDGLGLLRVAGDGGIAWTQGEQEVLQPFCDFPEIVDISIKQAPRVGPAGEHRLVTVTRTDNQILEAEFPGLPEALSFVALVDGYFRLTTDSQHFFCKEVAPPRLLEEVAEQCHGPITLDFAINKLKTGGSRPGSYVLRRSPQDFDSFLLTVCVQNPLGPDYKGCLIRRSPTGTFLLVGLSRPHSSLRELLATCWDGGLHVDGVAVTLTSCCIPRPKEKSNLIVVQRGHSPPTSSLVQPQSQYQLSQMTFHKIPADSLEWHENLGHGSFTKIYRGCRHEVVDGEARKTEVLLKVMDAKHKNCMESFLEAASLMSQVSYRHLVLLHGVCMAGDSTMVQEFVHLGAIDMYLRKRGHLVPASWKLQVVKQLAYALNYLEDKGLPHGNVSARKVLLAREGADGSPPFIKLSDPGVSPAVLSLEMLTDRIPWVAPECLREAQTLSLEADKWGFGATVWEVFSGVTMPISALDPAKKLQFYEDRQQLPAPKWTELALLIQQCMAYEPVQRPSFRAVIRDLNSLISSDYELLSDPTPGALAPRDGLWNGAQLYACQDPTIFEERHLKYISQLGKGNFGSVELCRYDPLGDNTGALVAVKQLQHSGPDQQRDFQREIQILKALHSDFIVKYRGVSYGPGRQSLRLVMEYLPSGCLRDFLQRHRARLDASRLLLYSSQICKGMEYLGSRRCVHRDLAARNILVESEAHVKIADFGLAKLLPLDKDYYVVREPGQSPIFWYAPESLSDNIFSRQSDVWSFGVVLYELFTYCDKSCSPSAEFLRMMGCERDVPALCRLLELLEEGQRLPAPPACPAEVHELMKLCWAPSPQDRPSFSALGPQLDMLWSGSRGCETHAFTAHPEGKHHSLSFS
Experimental: (§1) Provided compounds are evaluated for selectivity by comparing their JAK2 binding affinity (Kd) in the above JAK2 Binding Assay with their binding affinity (Kd) for one or more other kinases. Binding affinity for other kinases is determined as follows: Kinase-tagged T7 phage strains are prepared in an E. coli host derived from the BL21 strain. E. coli are grown to log-phase and infected with T7 phage and incubated with shaking at 32° C. until lysis. The lysates are centrifuged and filtered to remove cell debris. The remaining kinases are produced in HEK-293 cells and subsequently tagged with DNA for qPCR detection. Streptavidin-coated magnetic beads are treated with biotinylated small molecule ligands for 30 minutes at room temperature to generate affinity resins for kinase assays. The liganded beads are blocked with excess biotin and washed with blocking buffer (SeaBlock (Pierce), 1% BSA, 0.05% Tween 20, 1 mM DTT) to remove unbound ligand and to reduce non-specific binding. Binding reactions are assembled by combining kinases, liganded affinity beads, and test compounds in 1× binding buffer (20% SeaBlock, 0.17×PBS, 0.05% Tween 20, 6 mM DTT). Test compounds are prepared as 111× stocks in 100% DMSO. Kds are determined using an 11-point 3-fold compound dilution series with three DMSO control points. All compounds for Kd measurements are distributed by acoustic transfer (non-contact dispensing) in 100% DMSO. The compounds are then diluted directly into the assays such that the final concentration of DMSO is 0.9%. All reactions are performed in polypropylene 384-well plate. Each has a final volume of 0.02 ml. The assay plates are incubated at room temperature with shaking for 1 hour and the affinity beads are washed with wash buffer (1×PBS, 0.05% Tween 20). The beads are then re-suspended in elution buffer (1× PBS, 0.05% Tween 20, 0.5 μM non-biotinylated affinity ligand) and incubated at room temperature with shaking for 30 minutes. The kinase concentration in the eluates is measured by qPCR. […] In some embodiments, provided compounds may be JAK2-selective over one or more of the following kinases: JAK1, JAK3, and Tyk2.

[3] = biological target: T2, JAK2 (JH1 domain-catalytic, Y1007F,Y1008F) kinase (Homo sapiens, UniProt O60674, Y1007F/Y1008F); assay: JAK2 Binding Assay (JAK2 JH1 Domain Binding Assay); conditions: JAK2 JH1 domain binding, qPCR detection; read-out: JAK2 Kd
T2 construct: made in house; host or cells: transiently transfected HEK293 cells

[4] = biological target: T3, JAK1 (Homo sapiens, UniProt P23458); assay: JAK Family Selectivity Assay: JAK1 vs JAK2 binding affinity; conditions: Kd JAK1 over Kd JAK2
T3 construct: made in house; host or cells: T7 phage in BL21-derived E. coli or HEK-293 cells
Experimental: as §1

T2 sequence (O60674 849-1124 Y1007F/Y1008F limits assumed): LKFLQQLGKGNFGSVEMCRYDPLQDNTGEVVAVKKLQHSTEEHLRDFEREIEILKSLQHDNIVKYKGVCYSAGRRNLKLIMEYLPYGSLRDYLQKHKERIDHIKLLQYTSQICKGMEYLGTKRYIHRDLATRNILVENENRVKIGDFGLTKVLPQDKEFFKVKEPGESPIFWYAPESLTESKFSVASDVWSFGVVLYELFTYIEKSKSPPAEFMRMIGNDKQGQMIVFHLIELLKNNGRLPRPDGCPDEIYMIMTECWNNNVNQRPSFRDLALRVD
T3 sequence (P23458 whole entry): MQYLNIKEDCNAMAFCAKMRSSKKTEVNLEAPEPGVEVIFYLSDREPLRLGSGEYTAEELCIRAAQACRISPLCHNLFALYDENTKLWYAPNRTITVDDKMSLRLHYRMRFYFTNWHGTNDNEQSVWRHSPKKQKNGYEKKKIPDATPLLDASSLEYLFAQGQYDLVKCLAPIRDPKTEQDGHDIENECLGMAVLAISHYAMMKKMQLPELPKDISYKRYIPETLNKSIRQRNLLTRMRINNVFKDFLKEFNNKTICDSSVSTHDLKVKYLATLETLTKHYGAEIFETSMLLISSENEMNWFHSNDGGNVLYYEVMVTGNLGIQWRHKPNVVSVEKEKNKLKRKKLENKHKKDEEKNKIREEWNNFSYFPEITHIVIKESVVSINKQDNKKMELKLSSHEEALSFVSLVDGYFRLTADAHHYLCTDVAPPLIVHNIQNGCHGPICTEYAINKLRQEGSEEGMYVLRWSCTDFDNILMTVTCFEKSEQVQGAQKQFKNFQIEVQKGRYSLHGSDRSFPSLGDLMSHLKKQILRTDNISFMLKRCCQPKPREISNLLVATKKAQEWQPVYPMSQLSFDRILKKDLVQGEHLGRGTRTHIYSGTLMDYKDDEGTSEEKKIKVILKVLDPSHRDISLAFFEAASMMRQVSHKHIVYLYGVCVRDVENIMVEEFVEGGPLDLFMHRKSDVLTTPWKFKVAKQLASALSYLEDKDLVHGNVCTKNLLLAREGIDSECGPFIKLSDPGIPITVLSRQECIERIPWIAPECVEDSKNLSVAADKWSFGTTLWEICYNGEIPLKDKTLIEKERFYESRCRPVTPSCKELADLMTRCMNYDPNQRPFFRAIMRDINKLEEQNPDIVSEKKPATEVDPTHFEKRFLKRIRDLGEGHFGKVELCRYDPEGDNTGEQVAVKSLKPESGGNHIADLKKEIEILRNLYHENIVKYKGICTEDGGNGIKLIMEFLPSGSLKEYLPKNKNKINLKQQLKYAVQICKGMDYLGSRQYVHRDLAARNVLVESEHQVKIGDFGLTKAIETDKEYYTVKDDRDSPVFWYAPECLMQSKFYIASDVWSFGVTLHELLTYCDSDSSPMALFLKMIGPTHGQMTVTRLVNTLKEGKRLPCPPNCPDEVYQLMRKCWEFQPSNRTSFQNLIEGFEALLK

Compound | CLint scaled at 1 μM [1] [mL/min/kg] | JAK3/JAK2 Kd/Kd ratio [2] | pKd [3] | JAK1/JAK2 Kd/Kd ratio [4]
COC(=O)Nc1cc(Oc2cnc3nc(Nc4cc(C(F)(F)F)cn(C)c4=O)n(C)c3c2C#N)ccn1 [Example I-3, Methyl (4-((7-cyano-1-methyl-2-((1-methyl-2-oxo-5-(trifluoromethyl)-1,2-dihydropyridin-3-yl)amino)-1H-imidazo[4,5-b]pyridin-6-yl)oxy)pyridin-2-yl)carbamate] | ≤ 6 | A (Kd/Kd ratio ≥1000) | > 8.00 | A (Kd/Kd ratio ≥1000)
CN(C)C(=O)Nc1cc(Oc2cnc3nc(Nc4cc(C(F)(F)F)cn(C)c4=O)n(C)c3c2C#N)ccn1 [Example I-4, 3-(4-((7-cyano-1-methyl-2-((1-methyl-2-oxo-5-(trifluoromethyl)-1,2-dihydropyridin-3-yl)amino)-1H-imidazo[4,5-b]pyridin-6-yl)oxy)pyridin-2-yl)-1,1-dimethylurea] | ≤ 6 | A (Kd/Kd ratio ≥1000) | > 8.00 | B (Kd/Kd ratio <1000 and ≥300)
Cn1cc(C(F)(F)F)cc(Nc2nc3ncc(Oc4ccnc(NC(=O)N5CCC5)c4)c(C#N)c3n2C)c1=O [Example I-7, N-(4-((7-cyano-1-methyl-2-((1-methyl-2-oxo-5-(trifluoromethyl)-1,2-dihydropyridin-3-yl)amino)-1H-imidazo[4,5-b]pyridin-6-yl)oxy)pyridin-2-yl)azetidine-1-carboxamide] | ≤ 6 | A (Kd/Kd ratio ≥1000) | > 8.00 | A (Kd/Kd ratio ≥1000)
CO[C@H]1CCN(C(=O)Nc2cc(Oc3cnc4nc(Nc5cc(C(F)(F)F)cn(C)c5=O)n(C)c4c3C#N)ccn2)C1 [Example I-14, (S)-N-(4-((7-cyano-1-methyl-2-((1-methyl-2-oxo-5-(trifluoromethyl)-1,2-dihydropyridin-3-yl)amino)-1H-imidazo[4,5-b]pyridin-6-yl)oxy)pyridin-2-yl)-3-methoxypyrrolidine-1-carboxamide] | ≤ 6 | A (Kd/Kd ratio ≥1000) | > 8.00 | A (Kd/Kd ratio ≥1000)
Cn1cc(C(F)(F)F)cc(Nc2nc3ncc(Oc4ccnc(NC(=O)OCCN5CCOCC5)c4)c(C#N)c3n2C)c1=O [Example I-15, 2-Morpholinoethyl(4-((7-cyano-1-methyl-2-((1-methyl-2-oxo-5-(trifluoromethyl)-1,2-dihydropyridin-3-yl)amino)-1H-imidazo[4,5-b]pyridin-6-yl)oxy)pyridin-2-yl)carbamate] | ≤ 6 | A (Kd/Kd ratio ≥1000) | > 8.00 | B (Kd/Kd ratio <1000 and ≥300)
CN(C)C(=O)Nc1cc(Oc2cnc3nc(Nc4cc5n(n4)CCC54CCC4)n(C)c3c2C#N)ccn1 [Example I-56, 3-(4-((7-cyano-2-((5′,6′-dihydrospiro[cyclobutane-1,4′-pyrrolo[1,2-b]pyrazol]-2′-yl)amino)-1-methyl-1H-imidazo[4,5-b]pyridin-6-yl)oxy)pyridin-2-yl)-1,1-dimethylurea] | ≤ 6 | – | > 8.00 | –
COC(=O)Nc1cc(Oc2cnc3nc(Nc4cc5n(n4)CCC54CCC4)n(C)c3c2C#N)ccn1 [Example I-57, methyl(4-((7-cyano-2-((5′,6′-dihydrospiro[cyclobutane-1,4′-pyrrolo[1,2-b]pyrazol]-2′-yl)amino)-1-methyl-1H-imidazo[4,5-b]pyridin-6-yl)oxy)pyridin-2-yl)carbamate] | 6 to 12 | – | > 8.00 | –

Other lines, results leading:

CLint scaled at 1 μM [1] [mL/min/kg] | JAK3/JAK2 Kd/Kd ratio [2] | pKd [3] | JAK1/JAK2 Kd/Kd ratio [4] | Compound
6 to 12 | – | > 8.00 | – | COC1CN(C(=O)Nc2cc(Oc3cnc4nc(Nc5cc6n(n5)CCCC6(F)F)n(C)c4c3C#N)ccn2)C1 [Example I-26, N-(4-((7-cyano-2-((4,4-difluoro-4,5,6,7-tetrahydropyrazolo[1,5-a]pyridin-2-yl)amino)-1-methyl-1H-imidazo[4,5-b]pyridin-6-yl)oxy)pyridin-2-yl)-3-methoxyazetidine-1-carboxamide]
6 to 12 | – | > 8.00 | – | Cn1c(Nc2cc3n(n2)CCOC3(C)C)nc2ncc(Oc3ccnc(NC(=O)O[C@@H]4CCOC4)c3)c(C#N)c21 [Example I-48, (R)-Tetrahydrofuran-3-yl(4-((7-cyano-2-((4,4-dimethyl-6,7-dihydro-4H-pyrazolo[5,1-c][1,4]oxazin-2-yl)amino)-1-methyl-1H-imidazo[4,5-b]pyridin-6-yl)oxy)pyridin-2-yl)carbamate]
6 to 12 | – | > 8.00 | – | CC(=O)Nc1cc(Oc2cnc3nc(Nc4cc5n(n4)CCCC54CC4)n(C)c3c2C#N)ccn1 [Example I-114, N-(4-((7-cyano-2-((6′,7′-dihydro-5′H-spiro[cyclopropane-1,4′-pyrazolo[1,5-a]pyridin]-2′-yl)amino)-1-methyl-1H-imidazo[4,5-b]pyridin-6-yl)oxy)pyridin-2-yl)acetamide]
≤ 6 | – | > 8.00 | – | CC(=O)Nc1cc(Oc2cnc3nc(Nc4cc5n(n4)CCOCC5(C)C)n(C)c3c2C#N)ccn1 [Example I-118, N-(4-((7-cyano-2-((4,4-dimethyl-4,5,7,8-tetrahydropyrazolo[1,5-d][1,4]oxazepin-2-yl)amino)-1-methyl-1H-imidazo[4,5-b]pyridin-6-yl)oxy)pyridin-2-yl)acetamide]
